In one experiment the test system is M. smegmatis. Conditions: cited from earlier work.
In experiment [1] the test system is M. tuberculosis trehalose catalytic shift (metabolome). The experiment can be described thus: Metabolomics profiling / trehalose catalytic shift. It is filed as cell-based, Mycobacterium tuberculosis. Conditions: M. tuberculosis biofilm, trehalose accumulation, depletion of maltose, glucose-P, sedoheptulose-P.
In experiment [2] the target is TreS (trehalose synthase) (Mycobacterium tuberculosis, UniProt P9WQ19). The experiment can be described thus: In vitro TreS assay (maltose production, LC-MS). Conditions: 100 μM compound, in vitro TreS enzyme reaction. It is filed as biochemical, M. tuberculosis. As for the experimental part: In vitro TreS assay. TreS activity was measured using a 100 μL in vitro enzyme reaction containing 40 mM MOPS (pH 7.0), 10 mM trehalose, and 20 ng of purified TreS enzyme in the presence or absence of 6-treAz or validamycin A (a known TreS inhibitor). The reaction was initiated by adding TreS enzyme, incubated at 37° C., and then quenched by heating and adding acetonitrile containing 0.2% formic acid. After centrifugation, supernatants were used for LC-MS to quantify maltose product.

Experiment [3] has as its system M. tuberculosis. Conditions: cited from earlier work.
The next experiment relates to M. smegmatis biofilm. Conditions: cited from earlier work.
The test system of the next experiment is M. aurum. Conditions: cited from earlier work.
The test system of experiment [4] is M. tuberculosis. Nature of the experiment: M. tuberculosis planktonic growth inhibition. In kind it is cell-based, Mycobacterium tuberculosis.
Another experiment relates to M. tuberculosis biofilm. Nature of the experiment: M. tuberculosis biofilm formation inhibition (crystal violet staining). It is filed as cell-based, Mycobacterium tuberculosis. As for the experimental part:
FIG. 1A-D. Anti-M. tuberculosis biofilm activity of 6-treAz (6-azido-6-deoxy-D-trehalose). The effects of various concentrations of 6-treAz treatment on M. tuberculosis biofilms were monitored by crystal violet (CV) staining assay (A and B). […] The effect of 6-treAz on TreS mediated maltose production. Y-axis is the amount of maltose produced (D).
Planktonic growth and biofilm assays. Evaluation of planktonic growth and biofilm formation inhibition for M. smegmatis was carried out as previously reported for other trehalose analogues (Carbohydr. Res. 2017, 450, 60-66). Evaluation of planktonic growth and biofilm formation inhibition for M. tuberculosis was carried out as previously reported for 6-TreAz (Nat. Commun., 2019, 2928-2928).

This is an account of results in US20250205260A1, “ADJUNCTIVE TREATMENT OF MYCOBACTERIAL DISEASES” (UNIVERSITY OF SOUTHERN CALIFORNIA, priority 2022, published 2025).

SMILES strings stand for the structures.

TreS (trehalose synthase), sequence (P9WQ19 whole entry, looked up): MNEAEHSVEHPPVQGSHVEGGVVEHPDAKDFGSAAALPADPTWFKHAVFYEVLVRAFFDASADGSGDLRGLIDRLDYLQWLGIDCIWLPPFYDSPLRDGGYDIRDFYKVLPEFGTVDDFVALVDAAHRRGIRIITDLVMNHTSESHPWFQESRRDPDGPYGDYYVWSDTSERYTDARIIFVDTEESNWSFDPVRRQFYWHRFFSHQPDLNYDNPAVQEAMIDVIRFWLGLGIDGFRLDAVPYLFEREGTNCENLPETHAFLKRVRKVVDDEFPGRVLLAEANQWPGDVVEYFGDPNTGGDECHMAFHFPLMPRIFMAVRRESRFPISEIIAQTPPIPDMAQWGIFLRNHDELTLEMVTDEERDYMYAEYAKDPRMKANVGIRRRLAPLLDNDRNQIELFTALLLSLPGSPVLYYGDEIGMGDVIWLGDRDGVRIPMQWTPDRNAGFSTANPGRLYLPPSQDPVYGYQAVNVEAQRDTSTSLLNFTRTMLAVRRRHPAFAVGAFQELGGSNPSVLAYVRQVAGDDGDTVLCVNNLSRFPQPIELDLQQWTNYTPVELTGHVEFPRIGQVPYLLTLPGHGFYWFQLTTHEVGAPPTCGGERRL

`[N-]=[N+]=NC[C@H]1O[C@H](O[C@H]2O[C@H](CO)[C@@H](O)[C@H](O)[C@H]2O)[C@H](O)[C@@H](O)[C@@H]1O` [6-TreAz, (2R,3S,4S,5R,6R)-2-(azidomethyl)-6-(((2R,3R,4S,5S,6R)-3,4,5-trihydroxy-6-(hydroxymethyl)tetrahydro-2H-pyran-2-yl)oxy)tetrahydro-2H-pyran-3,4,5-triol]: the “inhibition of M. smegmatis planktonic growth (previous research)” value in the experiment with M. smegmatis was “inhibit growth”. In addition, the “inhibition of the trehalose catalytic shift” value in experiment [1] was “blocked”; in experiment [1] (listed as 6-treAz) it was “dose-dependent inhibition”. Moreover, the “TreS mediated maltose production” value in experiment [2] is given as “abolished”. In addition, the “inhibition of M. tuberculosis planktonic growth (previous research)” value with M. tuberculosis [3] is recorded as “inhibit growth”. Moreover, the “inhibition of M. smegmatis biofilm formation (previously known)” value in the experiment with M. smegmatis biofilm is recorded as “known to inhibit”. For the same molecule, the “inhibition of M. aurum growth (previous research)” value with M. aurum is “inhibit growth”. Moreover, in the experiment on M. tuberculosis [4], the “inhibition of M. tuberculosis planktonic growth” value is on record as “no discernible effects”. In the experiment with M. tuberculosis biofilm, the “inhibition of M. tuberculosis biofilm formation” value is on record as “selective inhibitory activity”. Besides, the “concentration that significantly interfered with M. tuberculosis biofilm formation” value in the experiment with M. tuberculosis biofilm (WT biofilm culture) is “at least 100 M”.
